“And” between values parts separate entries of the source, which are not always exact repeats. Identical values can stand only once.
Settings: Liquid, Hot wire method

FC(F)CC(F)(F)F [1,1,1,3,3-pentafluoropropane]
Settings | thermal conductivity
262.46 K, 31214 kPa | 0.1107 W/m/K
262.47 K, 25250 kPa | 0.1091 W/m/K
262.47 K, 31210 kPa | 0.1107 W/m/K
262.48 K, 8852 kPa | 0.1036 W/m/K
262.48 K, 14086 kPa | 0.1051 W/m/K
262.48 K, 14126 kPa | 0.1053 W/m/K
262.49 K, 4309 kPa | 0.1016 W/m/K
262.49 K, 4315 kPa | 0.1017 W/m/K
262.5 K, 19581 kPa | 0.1068 W/m/K
262.51 K, 19565 kPa | 0.1063 W/m/K
262.54 K, 274 kPa | 0.09981 W/m/K
262.55 K, 264 kPa | 0.09976 W/m/K
262.84 K, 36891 kPa | 0.1121 W/m/K
262.84 K, 36917 kPa | 0.112 W/m/K
262.84 K, 43922 kPa | 0.1137 W/m/K
262.85 K, 43951 kPa | 0.1138 W/m/K
262.85 K, 51258 kPa | 0.1158 W/m/K
262.86 K, 51253 kPa | 0.1158 W/m/K
262.86 K, 58802 kPa | 0.1175 W/m/K
262.87 K, 58823 kPa | 0.1177 W/m/K
262.87 K, 68778 kPa | 0.12 W/m/K
262.87 K, 68811 kPa | 0.1201 W/m/K
262.89 K, 68892 kPa | 0.1203 W/m/K
262.9 K, 68869 kPa | 0.1204 W/m/K
262.97 K, 25291 kPa | 0.1088 W/m/K
262.97 K, 31137 kPa | 0.1104 W/m/K
262.97 K, 31171 kPa | 0.1105 W/m/K
262.98 K, 25286 kPa | 0.1085 W/m/K
263 K, 8795 kPa | 0.1032 W/m/K
263 K, 14094 kPa | 0.105 W/m/K
263 K, 14117 kPa | 0.1048 W/m/K
263.01 K, 8802 kPa | 0.1032 W/m/K
263.01 K, 19580 kPa | 0.1068 W/m/K
263.01 K, 19587 kPa | 0.1069 W/m/K
263.02 K, 4283 kPa | 0.1017 W/m/K
263.04 K, 4280 kPa | 0.1019 W/m/K
263.09 K, 251 kPa | 0.09992 W/m/K
263.09 K, 258 kPa | 0.1003 W/m/K
263.37 K, 43936 kPa | 0.1139 W/m/K
263.37 K, 51250 kPa | 0.1158 W/m/K
263.37 K, 68817 kPa | 0.1201 W/m/K
263.38 K, 43899 kPa | 0.1139 W/m/K
263.38 K, 51246 kPa | 0.1158 W/m/K
263.38 K, 58767 kPa | 0.1179 W/m/K
263.38 K, 58789 kPa | 0.1175 W/m/K
263.38 K, 68795 kPa | 0.12 W/m/K
263.39 K, 68867 kPa | 0.1202 W/m/K
263.39 K, 68877 kPa | 0.1202 W/m/K
281.24 K, 123 kPa | 0.09294 W/m/K
281.26 K, 5085 kPa | 0.09534 W/m/K
281.26 K, 10502 kPa | 0.09742 W/m/K
281.26 K, 16109 kPa | 0.09972 W/m/K
281.27 K, 5081 kPa | 0.09537 W/m/K
281.27 K, 10497 kPa | 0.09773 W/m/K
281.27 K, 16120 kPa | 0.09962 W/m/K
281.27 K, 36450 kPa | 0.1067 W/m/K
281.28 K, 29163 kPa | 0.1037 W/m/K and 0.1042 W/m/K
281.28 K, 36455 kPa | 0.1069 W/m/K
281.29 K, 22340 kPa | 0.1017 W/m/K and 0.1016 W/m/K
281.31 K, 44258 kPa | 0.1094 W/m/K
281.32 K, 44270 kPa | 0.1086 W/m/K
281.36 K, 52956 kPa | 0.1121 W/m/K
281.37 K, 61439 kPa | 0.1132 W/m/K
281.37 K, 61447 kPa | 0.1138 W/m/K
281.39 K, 68582 kPa | 0.1153 W/m/K
281.4 K, 68575 kPa | 0.1156 W/m/K
281.68 K, 36448 kPa | 0.1069 W/m/K
281.69 K, 123 kPa | 0.09324 W/m/K
281.69 K, 16102 kPa | 0.09989 W/m/K
281.69 K, 16110 kPa | 0.0999 W/m/K
281.69 K, 36460 kPa | 0.1069 W/m/K
281.7 K, 123 kPa | 0.09319 W/m/K
281.7 K, 10499 kPa | 0.09772 W/m/K
281.7 K, 29156 kPa | 0.1046 W/m/K
281.71 K, 10506 kPa | 0.09793 W/m/K
281.71 K, 29164 kPa | 0.1045 W/m/K
281.71 K, 44250 kPa | 0.109 W/m/K
281.72 K, 5099 kPa | 0.09526 W/m/K
281.72 K, 22328 kPa | 0.1023 W/m/K
281.72 K, 22339 kPa | 0.1018 W/m/K
281.72 K, 44261 kPa | 0.1096 W/m/K
281.73 K, 5092 kPa | 0.09542 W/m/K
281.74 K, 52967 kPa | 0.1113 W/m/K
281.74 K, 61451 kPa | 0.1132 W/m/K
281.75 K, 52979 kPa | 0.1116 W/m/K
281.75 K, 61458 kPa | 0.1139 W/m/K
281.78 K, 68577 kPa | 0.1148 W/m/K
281.78 K, 68579 kPa | 0.1154 W/m/K
282.14 K, 36443 kPa | 0.1066 W/m/K
282.14 K, 36448 kPa | 0.1061 W/m/K
282.16 K, 44239 kPa | 0.109 W/m/K
282.16 K, 44256 kPa | 0.1087 W/m/K
282.17 K, 29157 kPa | 0.1038 W/m/K
282.17 K, 29166 kPa | 0.1045 W/m/K
282.18 K, 16109 kPa | 0.09967 W/m/K
282.18 K, 52974 kPa | 0.1114 W/m/K
282.18 K, 61442 kPa | 0.114 W/m/K
282.18 K, 61445 kPa | 0.1137 W/m/K
282.19 K, 16097 kPa | 0.09999 W/m/K
282.19 K, 52971 kPa | 0.1111 W/m/K
282.2 K, 10491 kPa | 0.09788 W/m/K
282.2 K, 22326 kPa | 0.1018 W/m/K
282.2 K, 22330 kPa | 0.1022 W/m/K
282.21 K, 122 kPa | 0.09344 W/m/K
282.21 K, 123 kPa | 0.09288 W/m/K
282.21 K, 10493 kPa | 0.0975 W/m/K
282.21 K, 68577 kPa | 0.1158 W/m/K
282.22 K, 5074 kPa | 0.09546 W/m/K
282.22 K, 68599 kPa | 0.1157 W/m/K
282.23 K, 5088 kPa | 0.0957 W/m/K
282.64 K, 61432 kPa | 0.1136 W/m/K
282.65 K, 36437 kPa | 0.1064 W/m/K
282.65 K, 44235 kPa | 0.109 W/m/K
282.65 K, 61439 kPa | 0.1136 W/m/K
282.66 K, 44247 kPa | 0.1092 W/m/K
282.67 K, 52971 kPa | 0.1109 W/m/K
282.67 K, 52972 kPa | 0.1115 W/m/K
282.68 K, 29156 kPa | 0.104 W/m/K
282.68 K, 29162 kPa | 0.104 W/m/K
282.68 K, 68589 kPa | 0.1157 W/m/K
282.69 K, 68577 kPa | 0.1155 W/m/K
282.71 K, 16110 kPa | 0.09975 W/m/K and 0.09954 W/m/K
282.72 K, 22340 kPa | 0.1019 W/m/K
282.73 K, 22342 kPa | 0.1021 W/m/K
282.74 K, 10500 kPa | 0.09762 W/m/K
282.77 K, 5087 kPa | 0.09576 W/m/K
282.78 K, 123 kPa | 0.09344 W/m/K and 0.09326 W/m/K
282.78 K, 5079 kPa | 0.0959 W/m/K
283.17 K, 61441 kPa | 0.1135 W/m/K
283.17 K, 61445 kPa | 0.1138 W/m/K
283.19 K, 68547 kPa | 0.1156 W/m/K
283.19 K, 68582 kPa | 0.1158 W/m/K
283.2 K, 36442 kPa | 0.1068 W/m/K
283.2 K, 36446 kPa | 0.1068 W/m/K
283.2 K, 44231 kPa | 0.109 W/m/K
283.2 K, 44239 kPa | 0.1089 W/m/K
283.2 K, 52973 kPa | 0.1113 W/m/K
283.21 K, 52984 kPa | 0.1112 W/m/K
